Assay [1] concerns the target T1, hOAT (human ornithine δ-aminotransferase) (Homo sapiens, UniProt P04181).
T1 construct: gene OAT; untagged, pET43a, E. coli BL21(DE3)pLysS; DEAE and Superdex 200; tetramer in equilibrium with dimer, dimer is the functional unit
T1 sequence (P04181 26-439): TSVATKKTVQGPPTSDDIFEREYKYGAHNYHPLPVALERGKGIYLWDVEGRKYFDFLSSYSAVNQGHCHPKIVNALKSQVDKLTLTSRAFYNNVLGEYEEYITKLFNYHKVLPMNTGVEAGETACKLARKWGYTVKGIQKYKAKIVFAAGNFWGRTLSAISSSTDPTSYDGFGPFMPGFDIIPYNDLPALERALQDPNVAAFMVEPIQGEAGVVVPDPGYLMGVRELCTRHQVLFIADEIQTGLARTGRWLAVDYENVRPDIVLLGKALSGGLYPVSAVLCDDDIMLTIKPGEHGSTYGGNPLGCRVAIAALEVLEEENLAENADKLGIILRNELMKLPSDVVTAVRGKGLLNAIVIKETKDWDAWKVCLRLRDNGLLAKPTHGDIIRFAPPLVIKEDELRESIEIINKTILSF
The experiment in a line: thermal denaturation followed by CD at […] nm, holo versus apo. Format: binding. Conditions: 50 mM Hepes, pH 7.4, 0.5 M NaCl; tetrameric form; covalent (internal aldimine with Lys292).

The target of assay [2] is T2, hOAT (human ornithine δ-aminotransferase) (Homo sapiens, UniProt P04181, R217A).
T2 construct: gene OAT; untagged, pET43a, E. coli BL21(DE3)pLysS; DEAE and Superdex 200; tetramer in equilibrium with dimer, dimer is the functional unit
T2 sequence (P04181 26-439 R217A): T1 sequence (P04181 26-439) with R192A
The experiment in a line: quenching of intrinsic fluorescence of apoenzyme at […] nm. Conditions: read-out: KD(PLP). Format: binding.

From publication PMC5432616, “Oligomeric State and Thermal Stability of Apo- and Holo- Human Ornithine δ-Aminotransferase” (The Protein Journal, 2017) come the findings set out here.

Substitutions are numbered along the chain they refer to.

The term Kd denotes the concentration at which binding is half-saturated.

Turning to `Cc1ncc(COP(=O)(O)O)c(C=O)c1O` [PLP], the “dTm (apparent Tm, holo minus apo)” value in assay [1] was ~ 21 °C. For the same molecule, in assay [2], the Kd amounted to 280 ± 300 nM.
